Data as given in patent US20240383901A1, “SUBSTITUTED PYRROLO[2,3-D]PYRIMIDINES, THEIR PREPARATION AND THEIR THERAPEUTIC APPLICATION” (SANOFI, priority 2021, published 2024).
pIC50: −log10 of the molar value.

What was measured:
[1] = target: T1, full-length LRRK2 G2019S (Homo sapiens, UniProt Q5S007, G2019S); experiment: LRRK2-G2019S kinase activity assay (Lanthascreen TR-FRET); format: biochemical; details: 1.1 mM ATP
T1 construct: DYKDDDDK (FLAG)
Protocol: (§1) The potency of compounds was evaluated in vitro using the Lanthascreen® technology (ThermoFisher Scientific).
(§2) In a typical experiment, the reaction assay buffer contains 50 mM Tris pH8.2, 1 mM EGTA, 2.5 mM MgCl2, 0.05% Triton X100, 0.15% BSA and 1 mM DTT. The detection of the assay is performed using 1 nM Terbium labeled anti-phospho-LRRKtide (ThermoFisher Scientific) diluted in a TR-FRET buffer (ThermoFisher Scientific).
(§3) The experimental procedure was performed with Greiner small volume® 384-well. […] The working solution of compounds was prepared in a separate Greiner microplate.
(§4) The kinase reaction was initiated by addition of the ATP/LRRKtide substrate mix diluted in the reaction assay buffer. The reaction mix was incubated for at least 10 minutes at room temperature (initial velocity conditions). Reaction was stopped by addition of Terbium labeled anti-phospho-LRRKtide diluted into the detection buffer supplemented with EDTA (ThermoFisher Scientific). Plates are incubated for at least 30 minutes at room temperature and read on an Envision™ multimode plate reader (PerkinElmer) with LanthaScreen™. The TR-FRET 520:495 nm emission ratio was calculated and used to determine the IC50 value from a dose response curve fit to the 4-parameter logistic equation. The activity with respect to LRRK2 kinase in this test is given by the concentration which inhibits 50% of the LRRK2 activity (or IC50) in nM.

[2] = target: T2, full-length LRRK2 wild type (Homo sapiens, UniProt Q5S007); experiment: LRRK2 WT assay (Assay A, Lanthascreen TR-FRET, 500 uM ATP); format: biochemical; details: Assay A (values without *)
T2 construct: DYDDDDK tagged full-length LRRK2 wild type is used
T2 sequence (Q5S007 whole entry): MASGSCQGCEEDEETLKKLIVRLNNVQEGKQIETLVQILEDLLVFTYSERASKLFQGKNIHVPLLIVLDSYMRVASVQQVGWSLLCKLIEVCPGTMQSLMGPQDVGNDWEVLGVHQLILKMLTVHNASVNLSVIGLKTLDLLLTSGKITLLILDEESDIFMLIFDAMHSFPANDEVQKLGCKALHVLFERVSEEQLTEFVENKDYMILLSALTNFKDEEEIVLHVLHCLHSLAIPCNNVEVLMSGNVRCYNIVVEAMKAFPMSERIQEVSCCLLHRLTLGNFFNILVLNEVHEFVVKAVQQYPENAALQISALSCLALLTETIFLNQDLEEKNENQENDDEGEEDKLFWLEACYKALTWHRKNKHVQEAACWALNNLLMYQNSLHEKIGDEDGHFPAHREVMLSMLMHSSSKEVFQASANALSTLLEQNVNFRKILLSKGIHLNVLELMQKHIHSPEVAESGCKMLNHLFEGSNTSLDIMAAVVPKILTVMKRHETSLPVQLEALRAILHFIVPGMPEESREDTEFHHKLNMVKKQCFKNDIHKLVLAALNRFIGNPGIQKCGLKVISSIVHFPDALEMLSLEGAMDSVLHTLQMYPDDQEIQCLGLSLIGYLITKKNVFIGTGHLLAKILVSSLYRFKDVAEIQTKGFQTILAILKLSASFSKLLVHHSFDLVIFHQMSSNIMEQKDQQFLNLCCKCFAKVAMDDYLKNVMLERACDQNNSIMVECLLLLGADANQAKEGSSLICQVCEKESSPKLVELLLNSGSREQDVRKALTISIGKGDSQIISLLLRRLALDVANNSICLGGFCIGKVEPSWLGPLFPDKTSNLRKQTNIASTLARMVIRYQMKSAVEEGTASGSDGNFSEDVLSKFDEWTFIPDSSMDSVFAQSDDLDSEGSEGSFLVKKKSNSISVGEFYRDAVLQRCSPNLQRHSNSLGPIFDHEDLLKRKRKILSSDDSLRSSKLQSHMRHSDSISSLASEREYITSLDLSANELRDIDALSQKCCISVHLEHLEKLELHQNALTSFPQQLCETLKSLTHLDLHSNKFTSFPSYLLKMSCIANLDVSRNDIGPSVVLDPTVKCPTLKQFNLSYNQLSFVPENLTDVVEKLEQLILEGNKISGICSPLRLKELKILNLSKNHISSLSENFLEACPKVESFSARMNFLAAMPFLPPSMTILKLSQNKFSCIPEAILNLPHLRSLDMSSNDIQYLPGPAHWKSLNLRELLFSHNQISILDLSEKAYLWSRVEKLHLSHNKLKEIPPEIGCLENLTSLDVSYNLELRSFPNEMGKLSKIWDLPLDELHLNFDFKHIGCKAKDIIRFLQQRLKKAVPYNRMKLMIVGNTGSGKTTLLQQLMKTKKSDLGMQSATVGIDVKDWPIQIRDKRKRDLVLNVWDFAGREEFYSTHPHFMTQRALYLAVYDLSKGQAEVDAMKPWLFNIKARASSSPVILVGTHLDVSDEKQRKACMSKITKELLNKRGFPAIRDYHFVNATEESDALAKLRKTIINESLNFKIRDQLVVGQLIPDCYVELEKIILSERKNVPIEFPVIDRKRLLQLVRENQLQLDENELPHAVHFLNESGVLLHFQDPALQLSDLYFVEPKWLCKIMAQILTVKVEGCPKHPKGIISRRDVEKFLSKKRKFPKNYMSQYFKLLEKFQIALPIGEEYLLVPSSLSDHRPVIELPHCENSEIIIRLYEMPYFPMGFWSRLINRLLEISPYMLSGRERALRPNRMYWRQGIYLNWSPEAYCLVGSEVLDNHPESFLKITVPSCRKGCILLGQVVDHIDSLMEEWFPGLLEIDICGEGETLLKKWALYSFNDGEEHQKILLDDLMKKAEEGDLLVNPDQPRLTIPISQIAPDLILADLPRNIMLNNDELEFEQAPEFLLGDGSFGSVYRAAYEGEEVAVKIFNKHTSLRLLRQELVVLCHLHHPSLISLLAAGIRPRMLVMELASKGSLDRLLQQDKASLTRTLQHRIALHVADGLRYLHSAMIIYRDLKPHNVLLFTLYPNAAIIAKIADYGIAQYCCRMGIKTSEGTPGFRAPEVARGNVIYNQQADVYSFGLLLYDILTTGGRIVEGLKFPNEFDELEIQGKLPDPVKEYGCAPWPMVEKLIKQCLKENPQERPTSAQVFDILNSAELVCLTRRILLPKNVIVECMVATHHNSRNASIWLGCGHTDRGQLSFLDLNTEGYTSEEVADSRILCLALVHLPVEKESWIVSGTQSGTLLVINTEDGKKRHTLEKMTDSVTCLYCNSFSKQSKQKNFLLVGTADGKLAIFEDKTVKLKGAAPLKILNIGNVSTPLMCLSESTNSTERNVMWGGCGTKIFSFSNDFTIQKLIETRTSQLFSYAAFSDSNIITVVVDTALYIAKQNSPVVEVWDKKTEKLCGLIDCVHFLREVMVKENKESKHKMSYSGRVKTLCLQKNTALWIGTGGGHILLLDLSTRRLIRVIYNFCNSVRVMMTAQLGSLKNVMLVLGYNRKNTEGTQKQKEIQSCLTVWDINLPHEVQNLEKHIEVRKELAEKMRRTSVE
Protocol: as §1, §2, §3, §4

T1 sequence (Q5S007 whole entry G2019S): as the sequence (Q5S007 whole entry) above, with G2019S counted along it

Compound: CC(CO)n1cc(Nc2ncc3cc(C#N)n([C@H]4COC[C@@H]4C)c3n2)c(OC2COC2)n1 (stereo partly drawn) [Example 9, 2-[[1-[2-Hydroxy-1-methyl-ethyl]-3-(oxetan-3-yloxy)pyrazol-4-yl]amino]-7-[(3R,4R)-4-methyltetrahydrofuran-3-yl]pyrrolo[2,3-d]pyrimidine-6-carbonitrile]
- pIC50 [1]: 8.30
- pIC50 [2]: 8.30

Compound: C[C@H]1COC[C@@H]1n1c(C#N)cc2cnc(Nc3cn(CS(C)(=O)=O)nc3OC3COC3)nc21 [Example 14, 2-[[1-(Methylsulfonylmethyl)-3-(oxetan-3-yloxy)pyrazol-4-yl]amino]-7-[(3R,4R)-4-methyltetrahydrofuran-3-yl]pyrrolo[2,3-d]pyrimidine-6-carbonitrile]
- pIC50 [1]: 8.70
- pIC50 [2]: 8.70

Compound: [2H]C([2H])([2H])n1cc(Nc2ncc3cc(C#N)n([C@H]4COC[C@@H]4C)c3n2)c(OC2COC2)n1 [Example 19, 2-((1-(Methyl-d3)-3-(oxetan-3-yloxy)-1 H-pyrazol-4-yl)amino)-7-((3R,4R)-4-methyltetrahydrofuran-3-yl)-7H-pyrrolo[2,3-d]pyrimidine-6-carbonitrile]
- pIC50 [1]: 8.30
- pIC50 [2]: 8.30

Compound: C[C@H]1COC[C@@H]1n1c(C#N)cc2cnc(Nc3ccc(C(C)(C)O)cc3OC3COC3)nc21 [Example 20, 2-((4-(2-Hydroxypropan-2-yl)-2-(oxetan-3-yloxy)phenyl)amino)-7-((3R,4R)-4-methyltetrahydrofuran-3-yl)-7H-pyrrolo[2,3-d]pyrimidine-6-carbonitrile]
- pIC50 [1]: 8.52
- pIC50 [2]: 8.52

Compound: CC(C)Oc1nn(CC(F)(F)F)cc1Nc1ncc2cc(C#N)n([C@H]3COC[C@@H]3C)c2n1 [Example 25, 2-((3-Isopropoxy-1-(2,2,2-trifluoroethyl)-1H-pyrazol-4-yl)amino)-7-((3R,4R)-4-methyltetrahydrofuran-3-yl)-7H-pyrrolo[2,3-d]pyrimidine-6-carbonitrile]
- pIC50 [1]: 9.00
- pIC50 [2]: 9.00

Compound: CC(C)Oc1nn(C)cc1Nc1ncc2cc(C#N)n([C@H]3COC[C@@H]3C)c2n1 [Example 26, 2-((3-Isopropoxy-1-methyl-1H-pyrazol-4-yl)amino)-7-((3R,4R)-4-methyltetrahydrofuran-3-yl)-7H-pyrrolo[2,3-d]pyrimidine-6-carbonitrile]
- pIC50 [1]: 9.00
- pIC50 [2]: 9.00

Compound: C[C@H]1COC[C@@H]1n1c(C#N)cc2cnc(Nc3cn(C(C)(C)C#N)nc3OC3COC3)nc21 [Example 27, 2-((1-(2-Cyanopropan-2-yl)-3-(oxetan-3-yloxy)-1H-pyrazol-4-yl)amino)-7-((3R,4R)-4-methyltetrahydrofuran-3-yl)-7H-pyrrolo[2,3-d]pyrimidine-6-carbonitrile]
- pIC50 [1]: 9.00
- pIC50 [2]: 9.00

Compound: [2H]C([2H])([2H])n1cc(Nc2ncc3cc(C#N)n([C@H]4COC[C@@H]4C)c3n2)c(OC2CC2)n1 [Example 28, 2-((3-Cyclopropoxy-1-(methyl-d3)-1H-pyrazol-4-yl)amino)-7-((3R,4R)-4-methyltetrahydrofuran-3-yl)-7H-pyrrolo[2,3-d]pyrimidine-6-carbonitrile]
- pIC50 [1]: 8.52
- pIC50 [2]: 8.52

Compound: CC(C)Oc1nn(C(C)(C)C#N)cc1Nc1ncc2cc(C#N)n([C@H]3COC[C@@H]3C)c2n1 [Example 29, 2-((1-(2-Cyanopropan-2-yl)-3-isopropoxy-1H-pyrazol-4-yl)amino)-7-((3R,4R)-4-methyltetrahydrofuran-3-yl)-7H-pyrrolo[2,3-d]pyrimidine-6-carbonitrile]
- pIC50 [1]: 9.00
- pIC50 [2]: 9.00

Compound: C[C@H]1COC[C@@H]1n1c(C#N)cc2cnc(Nc3cn(C4COC4)nc3OC3CC3)nc21 [Example 30, 2-((3-Cyclopropoxy-1-(oxetan-3-yl)-1H-pyrazol-4-yl)amino)-7-((3R,4R)-4-methyltetrahydrofuran-3-yl)-7H-pyrrolo[2,3-d]pyrimidine-6-carbonitrile]
- pIC50 [1]: 8.52
- pIC50 [2]: 8.30

Compound: CC(C)Oc1nn(C2COC2)cc1Nc1ncc2cc(C#N)n([C@H]3COC[C@@H]3C)c2n1 [Example 31, 2-((3-Isopropoxy-1-(oxetan-3-yl)-1H-pyrazol-4-yl)amino)-7-((3R,4R)-4-methyltetrahydrofuran-3-yl)-7H-pyrrolo[2,3-d]pyrimidine-6-carbonitrile]
- pIC50 [1]: 8.70
- pIC50 [2]: 8.70

Compound: C[C@H]1COC[C@@H]1n1c(C#N)cc2cnc(Nc3cn(C)nc3OCC(C)(C)O)nc21 [Example 32, 2-((3-(2-Hydroxy-2-methylpropoxy)-1-methyl-1H-pyrazol-4-yl)amino)-7-((3R,4R)-4-methyltetrahydrofuran-3-yl)-7H-pyrrolo[2,3-d]pyrimidine-6-carbonitrile]
- pIC50 [1]: 8.15
- pIC50 [2]: 8.15

Compound: COCn1cc(Nc2ncc3cc(C#N)n([C@H]4COC[C@@H]4C)c3n2)c(OC2COC2)n1 [Example 33, 2-((1-(Methoxymethyl)-3-(oxetan-3-yloxy)-1H-pyrazol-4-yl)amino)-7-((3R,4R)-4-methyltetrahydrofuran-3-yl)-7H-pyrrolo[2,3-d]pyrimidine-6-carbonitrile]
- pIC50 [1]: 8.05
- pIC50 [2]: 7.85

Compound: C[C@H]1COC[C@@H]1n1c(C#N)cc2cnc(Nc3cn(S(C)(=O)=O)nc3OC3COC3)nc21 [Example 34, 2-((1-(Methylsulfonyl)-3-(oxetan-3-yloxy)-1H-pyrazol-4-yl)amino)-7-((3R,4R)-4-methyltetrahydrofuran-3-yl)-7H-pyrrolo[2,3-d]pyrimidine-6-carbonitrile]
- pIC50 [1]: 8.30
- pIC50 [2]: 8.15

Compound: COCn1cc(Nc2ncc3cc(C#N)n([C@H]4COC[C@@H]4C)c3n2)c(OC2CC2)n1 [Example 35, 2-((3-Cyclopropoxy-1-(methoxymethyl)-1H-pyrazol-4-yl)amino)-7-((3R,4R)-4-methyltetrahydrofuran-3-yl)-7H-pyrrolo[2,3-d]pyrimidine-6-carbonitrile]
- pIC50 [1]: 8.22
- pIC50 [2]: 8.40

Compound: C[C@H]1COC[C@@H]1n1c(C#N)cc2cnc(Nc3cn(CS(C)(=O)=O)nc3OC3CC3)nc21 [Example 36, 2-((3-Cyclopropoxy-1-((methylsulfonyl)methyl)-1H-pyrazol-4-yl)amino)-7-((3R,4R)-4-methyltetrahydrofuran-3-yl)-7H-pyrrolo[2,3-d]pyrimidine-6-carbonitrile]
- pIC50 [1]: 9.00
- pIC50 [2]: 9.00

Compound: C[C@H]1COC[C@@H]1n1c(C#N)cc2cnc(Nc3cn(C4CC4)nc3OC3COC3)nc21 [Example 37, 2-((1-Cyclopropyl-3-(oxetan-3-yloxy)-1H-pyrazol-4-yl)amino)-7-((3R,4R)-4-methyltetrahydrofuran-3-yl)-7H-pyrrolo[2,3-d]pyrimidine-6-carbonitrile]
- pIC50 [1]: 8.22
- pIC50 [2]: 8.10

Compound: CCn1cc(Nc2ncc3cc(C#N)n([C@H]4COC[C@@H]4C)c3n2)c(OC2COC2)n1 [Example 38, 2-((1-Ethyl-3-(oxetan-3-yloxy)-1H-pyrazol-4-yl)amino)-7-((3R,4R)-4-methyltetrahydrofuran-3-yl)-7H-pyrrolo[2,3-d]pyrimidine-6-carbonitrile]
- pIC50 [1]: 8.30
- pIC50 [2]: 8.22

Compound: C[C@H]1COC[C@@H]1n1c(C#N)cc2cnc(Nc3cn(C)nc3OC3CCC34COC4)nc21 (stereo partly drawn) [Example 40, 2-[[1-methyl-3-[(2-oxaspiro[3.3]heptan-7-yl)oxy]pyrazol-4-yl]amino]-7-[(3R,4R)-4-methyltetrahydrofuran-3-yl]pyrrolo[2,3-d]pyrimidine-6-carbonitrile]
- pIC50 [1]: 9.00
- pIC50 [2]: 9.00

Compound: C[C@H]1COC[C@@H]1n1c(C#N)cc2cnc(Nc3ccc(CN(C)C)cc3OC3CC3)nc21 [Example 41, 2-((2-Cyclopropoxy-4-((dimethylamino)methyl)phenyl)amino)-7-((3R,4R)-4-methyltetrahydrofuran-3-yl)-7H-pyrrolo[2,3-d]pyrimidine-6-carbonitrile]
- pIC50 [1]: 8.52
- pIC50 [2]: 8.40

Compound: [2H]C([2H])([2H])n1cc(Nc2ncc3cc(C#N)n([C@H]4COC[C@@H]4C)c3n2)c(OC(C)C)n1 [Example 42, 2-((3-Isopropoxy-1-(methyl-d3)-1H-pyrazol-4-yl)amino)-7-((3R,4R)-4-methyltetrahydrofuran-3-yl)-7H-pyrrolo[2,3-d]pyrimidine-6-carbonitrile]
- pIC50 [1]: 8.70
- pIC50 [2]: 9.00

Compound: C[C@@H]1COC[C@H]1n1c(C#N)cc2cnc(Nc3cn(C)nc3OC3COC3)nc21 [Example 44, 2-((1-Methyl-3-(oxetan-3-yloxy)-1 H-pyrazol-4-yl)amino)-7-((3S,4S)-4-methyltetrahydrofuran-3-yl)-7H-pyrrolo[2,3-d]pyrimidine-6-carbonitrile]
- pIC50 [1]: 6.72
- pIC50 [2]: 6.71

Compound: CO[C@H]1COC[C@H]1n1c(C#N)cc2cnc(Nc3ccc(C(C)(C)O)cc3OC3COC3)nc21 [Example 55, 2-((4-(2-Hydroxypropan-2-yl)-2-(oxetan-3-yloxy)phenyl)amino)-7-((3R,4R)-4-methoxytetrahydrofuran-3-yl)-7H-pyrrolo[2,3-d]pyrimidine-6-carbonitrile]
- pIC50 [1]: 7.74
- pIC50 [2]: 7.39

Compound: CC(C)Oc1nn(C(C)(C)C#N)cc1Nc1ncc2cc(C#N)n(C3COC3)c2n1 [Example 74, 2-((1-(2-Cyanopropan-2-yl)-3-isopropoxy-1H-pyrazol-4-yl)amino)-7-(oxetan-3-yl)-7H-pyrrolo[2,3-d]pyrimidine-6-carbonitrile]
- pIC50 [1]: 7.85
- pIC50 [2]: 7.70
